# Experimental data taken from PubChem BioAssay AID212 (DTP/NCI, 2004).
# Several values for one entry are separate records, joined by “and”; a condition that tells them apart may be missing. Equal entries are not always repeated. Inconclusive results are not listed.
# System: BDF1 mice, colon carcinoma 38 sc, T/C %
# Experiment: NCI In Vivo Anticancer Drug Screen. Data for tumor model Colon Carcinoma 38 (subcutaneous) in B6D2F1 (BDF1) mice
# Summary of the method: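 Compound antitumor activity was assessed in mice carrying transplantable tumors. Survival or tumor size was recorded, and each value is the treated-group measurement divided by that of the vehicle-treated control group.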
# [1] = endpoint: median tumor weight (est.), dose: 25.0 mg/kg/injection, schedule: Q07DX002 (ip), vehicle: Klucel (hydroxypropylcellulose) (HPC), higher = larger tumour
# [2] = endpoint: median tumor weight (est.), dose: 50.0 mg/kg/injection, schedule: Q07DX002 (ip), vehicle: Klucel (hydroxypropylcellulose) (HPC), higher = larger tumour
# [3] = endpoint: median tumor weight (est.), dose: 100.0 mg/kg/injection, schedule: Q07DX002 (ip), vehicle: Klucel (hydroxypropylcellulose) (HPC), higher = larger tumour
# [4] = endpoint: median tumor weight (est.), dose: 25.0 mg/kg/injection, schedule: Q07DX002 (ip), vehicle: saline with Tween-80, higher = larger tumour
# [5] = endpoint: median tumor weight (est.), dose: 6.25 mg/kg/injection, schedule: Q07DX002 (ip), vehicle: Klucel (hydroxypropylcellulose) (HPC), higher = larger tumour
# [6] = endpoint: median tumor weight (est.), dose: 12.5 mg/kg/injection, schedule: Q07DX002 (ip), vehicle: Klucel (hydroxypropylcellulose) (HPC), higher = larger tumour
# [7] = endpoint: median tumor weight (est.), dose: 12.5 mg/kg/injection, schedule: Q07DX002 (ip), vehicle: saline with Tween-80, higher = larger tumour
# [8] = endpoint: median tumor weight (est.), dose: 50.0 mg/kg/injection, schedule: Q07DX002 (ip), vehicle: saline with Tween-80, higher = larger tumour
# [9] = endpoint: median tumor weight (est.), dose: 100.0 mg/kg/injection, schedule: Q07DX002 (ip), vehicle: saline with Tween-80, higher = larger tumour
# [10] = endpoint: median tumor weight (est.), dose: 200.0 mg/kg/injection, schedule: Q07DX002 (ip), vehicle: saline with Tween-80, higher = larger tumour
# [11] = endpoint: median tumor weight (est.), dose: 400.0 mg/kg/injection, schedule: Q07DX002 (ip), vehicle: saline with Tween-80, higher = larger tumour
# [12] = endpoint: median tumor weight (est.), dose: 6.25 mg/kg/injection, schedule: Q07DX002 (ip), vehicle: saline with Tween-80, higher = larger tumour
# [13] = endpoint: median tumor weight (est.), dose: 12.5 mg/kg/injection, schedule: Q07DX002 (ip), vehicle: saline, higher = larger tumour
# [14] = endpoint: median tumor weight (est.), dose: 100.0 mg/kg/injection, schedule: Q07DX002 (ip), vehicle: saline, higher = larger tumour
# [15] = endpoint: median tumor weight (est.), dose: 200.0 mg/kg/injection, schedule: Q07DX002 (ip), vehicle: saline, higher = larger tumour
# [16] = endpoint: median tumor weight (est.), dose: 3.12 mg/kg/injection, schedule: Q07DX002 (ip), vehicle: saline with Tween-80, higher = larger tumour
structure (smiles),measurement,setting,value
O=C(O)/C=C/C(=O)Nc1ccc(Cl)c(Cl)c1,T/C,"endpoint: median tumor weight (est.), dose: 12.5 mg/kg/injection, schedule: Q07DX003 (ip), vehicle: Klucel (hydroxypropylcellulose) (HPC), higher = larger tumour",84 % of control
same,T/C,[1],67 % of control
same,T/C,[2],77 % of control
same,T/C,"endpoint: median tumor weight (est.), dose: 50.0 mg/kg/injection, schedule: Q07DX003 (ip), vehicle: Klucel (hydroxypropylcellulose) (HPC), higher = larger tumour",69 % of control
same,T/C,[3],78 % of control
same,T/C,"endpoint: median tumor weight (est.), dose: 100.0 mg/kg/injection, schedule: Q07DX003 (ip), vehicle: Klucel (hydroxypropylcellulose) (HPC), higher = larger tumour",122 % of control
same,T/C,"endpoint: median tumor weight (est.), dose: 200.0 mg/kg/injection, schedule: Q07DX002 (ip), vehicle: Klucel (hydroxypropylcellulose) (HPC), higher = larger tumour",67 % of control
FC(F)(F)c1nc2nc(Cl)c(Cl)nc2[nH]1,T/C,[4],93 % of control
COc1cc(NS(C)(=O)=O)ccc1Nc1c2ccccc2nc2ccccc12,T/C,"endpoint: median tumor weight (est.), dose: 0.5 mg/kg/injection, schedule: Q07DX003 (ip), vehicle: other, higher = larger tumour",68 % of control
same,T/C,"endpoint: median tumor weight (est.), dose: 1.0 mg/kg/injection, schedule: Q07DX002 (ip), vehicle: other, higher = larger tumour",93 % of control
same,T/C,"endpoint: median tumor weight (est.), dose: 1.0 mg/kg/injection, schedule: Q07DX003 (ip), vehicle: other, higher = larger tumour",88 % of control
same,T/C,"endpoint: median tumor weight (est.), dose: 2.0 mg/kg/injection, schedule: Q07DX003 (ip), vehicle: other, higher = larger tumour",42 % of control
same,T/C,"endpoint: median tumor weight (est.), dose: 4.0 mg/kg/injection, schedule: Q07DX002 (ip), vehicle: other, higher = larger tumour",78 % of control and 91 % of control
same,T/C,"endpoint: median tumor weight (est.), dose: 4.0 mg/kg/injection, schedule: Q07DX003 (ip), vehicle: other, higher = larger tumour",56 % of control
same,T/C,"endpoint: median tumor weight (est.), dose: 8.0 mg/kg/injection, schedule: Q07DX003 (ip), vehicle: other, higher = larger tumour",47 % of control
CCCCCC[C@H]([C@H](C)O)n1cnc2c(N)ncnc21,T/C,"endpoint: median survival time, dose: 22.0 mg/kg/injection, schedule: Q02DX006 (iv), vehicle: saline, higher = longer survival",113 % of control
same,T/C,"endpoint: median survival time, dose: 36.0 mg/kg/injection, schedule: Q02DX006 (iv), vehicle: saline, higher = longer survival",111 % of control
same,T/C,"endpoint: median survival time, dose: 58.0 mg/kg/injection, schedule: Q02DX006 (iv), vehicle: saline, higher = longer survival",92 % of control
same,T/C,"endpoint: median survival time, dose: 93.0 mg/kg/injection, schedule: Q02DX006 (iv), vehicle: saline, higher = longer survival",115 % of control
same,T/C,[5],91 % of control
same,T/C,[6],194 % of control
same,T/C,[3],117 % of control and 103 % of control
COC(C(=O)C(O)C(C)O)C1Cc2cc3cc(OC4CC(OC(C)=O)C(OC5CC(O)C(OC)C(C)O5)C(C)O4)cc(O)c3c(O)c2C(=O)C1OC1CC(OC2CC(OC3CC(C)(O)C(OC(=O)C(C)C)C(C)O3)C(O)C(C)O2)C(O)C(C)O1 (configuration not stated),T/C,"endpoint: median tumor weight (est.), dose: 0.12 mg/kg/injection, schedule: Q07DX002 (ip), vehicle: saline with Tween-80, higher = larger tumour",113 % of control
same,T/C,"endpoint: median tumor weight (est.), dose: 0.25 mg/kg/injection, schedule: Q07DX002 (ip), vehicle: saline, higher = larger tumour",81 % of control
same,T/C,"endpoint: median tumor weight (est.), dose: 0.5 mg/kg/injection, schedule: Q07DX002 (ip), vehicle: saline with Tween-80, higher = larger tumour",113 % of control
same,T/C,"endpoint: median tumor weight (est.), dose: 0.5 mg/kg/injection, schedule: Q07DX002 (ip), vehicle: saline, higher = larger tumour",78 % of control
same,T/C,"endpoint: median tumor weight (est.), dose: 1.0 mg/kg/injection, schedule: Q07DX002 (ip), vehicle: saline with Tween-80, higher = larger tumour",59 % of control
same,T/C,"endpoint: median tumor weight (est.), dose: 1.0 mg/kg/injection, schedule: Q07DX002 (ip), vehicle: saline, higher = larger tumour",89 % of control
same,T/C,"endpoint: median tumor weight (est.), dose: 2.0 mg/kg/injection, schedule: Q07DX002 (ip), vehicle: saline with Tween-80, higher = larger tumour",55 % of control
same,T/C,"endpoint: median tumor weight (est.), dose: 2.0 mg/kg/injection, schedule: Q07DX002 (ip), vehicle: saline, higher = larger tumour",124 % of control
same,T/C,"endpoint: median tumor weight (est.), dose: 4.0 mg/kg/injection, schedule: Q07DX002 (ip), vehicle: saline with Tween-80, higher = larger tumour",48 % of control
same,T/C,"endpoint: median tumor weight (est.), dose: 4.0 mg/kg/injection, schedule: Q07DX002 (ip), vehicle: saline, higher = larger tumour",92 % of control
O=C(O)/C=C/C(=O)N1Cc2cc3ccccc3nc2C1,T/C,[7],84 % of control
same,T/C,[8],89 % of control
same,T/C,[9],173 % of control
same,T/C,[10],104 % of control
CCCCCCCC(=O)OCC(=O)[C@]1(O)Cc2c(O)c3c(c(O)c2[C@@H](OC2CC(N)C(O)C(C)O2)C1)C(=O)c1c(OC)cccc1C3=O (some centres not stated),T/C,"endpoint: median tumor weight (est.), dose: 2.0 mg/kg/injection, schedule: Q07DX002 (ip), vehicle: suspension in saline, higher = larger tumour",75 % of control
same,T/C,"endpoint: median tumor weight (est.), dose: 4.0 mg/kg/injection, schedule: Q07DX002 (ip), vehicle: suspension in saline, higher = larger tumour",70 % of control
same,T/C,"endpoint: median tumor weight (est.), dose: 8.0 mg/kg/injection, schedule: Q07DX002 (ip), vehicle: suspension in saline, higher = larger tumour",37 % of control
O=CC=O,T/C,[8],72 % of control and 86 % of control
same,T/C,[9],75 % of control and 77 % of control
same,T/C,[11],80 % of control and 95 % of control
Nc1ccc2nc3c4ccccc4c(O)n3nc2c1,T/C,[8],83 % of control
same,T/C,[9],101 % of control
same,T/C,[10],94 % of control
same,T/C,[11],98 % of control
Clc1ccc(CN2COc3c(ccc4cccnc34)C2)cc1Cl,T/C,[7],180 % of control
same,T/C,[4],171 % of control
same,T/C,[8],110 % of control
same,T/C,[9],206 % of control
CN(C)CCN1C(=O)c2cccc3cc([N+](=O)[O-])cc(c23)C1=O,T/C,"endpoint: median tumor weight (est.), dose: 1.56 mg/kg/injection, schedule: Q07DX002 (ip), vehicle: saline with Tween-80, higher = larger tumour",93 % of control
same,T/C,"endpoint: median tumor weight (est.), dose: 3.13 mg/kg/injection, schedule: Q07DX002 (ip), vehicle: saline with Tween-80, higher = larger tumour",90 % of control
same,T/C,[12],70 % of control
same,T/C,[7],56 % of control
CN=C(N)N/N=C(\C)c1ccc2oc3ccc(/C(C)=N/NC(N)=NC)cc3c2c1,T/C,[4],117 % of control
same,T/C,[8],100 % of control
same,T/C,[9],66 % of control
N#C[Se-].c1ccc([Te+](c2ccccc2)c2ccccc2)cc1,T/C,"endpoint: median tumor weight (est.), dose: 3.12 mg/kg/injection, schedule: Q07DX002 (ip), vehicle: Klucel (hydroxypropylcellulose) (HPC), higher = larger tumour",181 % of control
same,T/C,[5],80 % of control
same,T/C,[6],65 % of control
same,T/C,[1],186 % of control
O=C1C=CC(n2cc(F)c(=O)[nH]c2=O)O1 (configuration not stated),T/C,[13],113 % of control
same,T/C,[14],54 % of control
same,T/C,[15],116 % of control
COC1C(OC(=O)/C=C/C=C/C=C/C=C/C(=O)O)CCC2(CO2)C1C1(C)OC1CC=C(C)C (configuration not stated),T/C,"endpoint: median tumor weight (est.), dose: 25.0 mg/kg/injection, schedule: Q07DX002 (ip), vehicle: suspension in saline, higher = larger tumour",101 % of control
same,T/C,"endpoint: median tumor weight (est.), dose: 50.0 mg/kg/injection, schedule: Q07DX002 (ip), vehicle: suspension in saline, higher = larger tumour",208 % of control
same,T/C,"endpoint: median tumor weight (est.), dose: 200.0 mg/kg/injection, schedule: Q07DX002 (ip), vehicle: suspension in saline, higher = larger tumour",115 % of control
O=NN(CCF)C(=O)NC1CCCCC1,T/C,[6],77 % of control
same,T/C,[2],15 % of control
NC(N)=NC(N)=Nc1ccc(-c2ccc(N=C(N)N=C(N)N)cc2)cc1,T/C,[16],72 % of control
same,T/C,[12],61 % of control
same,T/C,[7],75 % of control
same,T/C,[4],69 % of control
same,T/C,[8],58 % of control
CCc1nc(N)nc(N)c1-c1ccc(Cl)c([N+](=O)[O-])c1,T/C,[16],70 % of control
same,T/C,[12],65 % of control and 77 % of control
same,T/C,[7],97 % of control and 103 % of control
same,T/C,[8],45 % of control and 62 % of control
same,T/C,[9],52 % of control
Nc1nc(F)nc2c1ncn2C1OC(COP(=O)(O)O)C(O)C1O (configuration not stated),T/C,[13],184 % of control
same,T/C,"endpoint: median tumor weight (est.), dose: 50.0 mg/kg/injection, schedule: Q07DX002 (ip), vehicle: saline, higher = larger tumour",87 % of control
same,T/C,[14],116 % of control and 93 % of control
same,T/C,[15],82 % of control and 101 % of control
same,T/C,"endpoint: median tumor weight (est.), dose: 400.0 mg/kg/injection, schedule: Q07DX002 (ip), vehicle: saline, higher = larger tumour",76 % of control and 83 % of control
CCCCCCCCCCCCCCCC(=O)OCC1OC(n2ccc(N)nc2=O)C(O)C1O (configuration not stated),T/C,[4],72 % of control
same,T/C,[8],36 % of control
same,T/C,[9],7 % of control
